The values below come from US5561126A, “4-oxa-1-azabicyclo [3,2,0] heptan-7-one derivatives as antitumor agents” (Taiho Pharmaceutical Co., Ltd., priority 1992, dated 1996).

SMILES strings stand for the structures. Converted amounts (≈) assume the structure as drawn.

The subject of one data set is KB cells. Briefly: In Vitro KB Cell Cytotoxicity Assay (crystal violet). As to conditions: Homo sapiens, 72 h, read-out: Cytotoxicity TD50 KB. In kind it is cell-based. On the procedure: KB cells were cultivated in Eagles minimum essential medium supplemented with 10% calf serum and incubated at 37° C. in a humidified 5% CO2 atmosphere to prepare a cell stock. Cells were counted using a neubauer hemocytometer and seeded in 96 well plates at 100 μl of 3×10^4 cells/ml and cultured for one day. […] Control wells were identical except that test compound was absent. These were cultured for three days. […] Then stained with 100 μl of 0.05% crystal violet for 15 minutes, washed with water and dried. The wells were eluted with 100 μl of 0.05M NaH2 PO4 /ethanol (1:1 v/v) and read at OD540 on a multiscan spectrophotometer. TD50 values were calculated using the following formula.

Another data set concerns Sarcoma 180. The data set can be described thus: In Vivo Antitumor Activity Against Sarcoma 180. Conditions: for Mortality in 12 days: i.p., days 1, 5 and 9.
Setting [1] is: Mus musculus, Sarcoma-180, ip, 288 h, read-out: % Inhibition of tumor growth.

Description for Sarcoma 180: Sarcoma 180, 5×10^6 cells were inoculated by S.C. to male ICR mice (6 weeks old) on day 0. Drugs were administered on days 1, 5 and 9. Mice were killed and tumor weight was measured on day 12 after transplantation. The percentage inhibition of tumor growth was calculated from the mean tumor weight of the treated group compared with that of the control group. Number of mice used in each group was between 6 to 10.

In the case of `CC(C)C(=O)OC[C@H]1CN2C(=O)C[C@@H]2O1` (racemic) [compound 9, (3RS, 5SR)-3-(2-Methylpropionyloxymethyl)-4-oxa-1-azabicyclo [3,2,0]heptan-7-one], in the data set on KB cells, the CC50 is 0.4 µg/mL (≈ 1.88 µM).
The same measure, in the same setting: the same measure for `C#CCCC(=O)OC[C@H]1CN2C(=O)C[C@@H]2O1` (racemic) [compound 17, (3RS, 5SR)-3-(4-Pentynoyloxymethyl)-4-oxa-1-azabicyclo [3,2,0]heptan-7-one]: 0.27 µg/mL (≈ 1.21 µM); for `O=C(OC[C@H]1CN2C(=O)C[C@@H]2O1)c1ccccc1` (racemic) [compound 18, (3RS, 5SR)-3-Benzoyloxymethyl-4-oxa-1-azabicyclo[3,2,0]heptan-7-one]: 5 µg/mL (≈ 20.2 µM).
Take `O=C([O-])c1ccccc1C(=O)OC[C@H]1CN2C(=O)C[C@@H]2O1.[Na+]` (racemic) [compound 25, Sodium (3RS, 5SR)-2-[(4-oxa-1-azabicyclo [3,2,0]heptan-7-one-3-yl)methyloxycarbonyl]benzoate]: the CC50 in the data set on KB cells was determined as 1.5 µg/mL. The “Mortality in 12 days” value with Sarcoma 180 (100 mg/kg/day) is 2/6. In addition, the inhibition in vivo at 100 mg/kg in the data set on Sarcoma 180 (setting [1]) amounted to 44.1%.
For the compound `O=C(CC(O)C(=O)OC[C@H]1CN2C(=O)C[C@@H]2O1)OC[C@H]1CN2C(=O)C[C@@H]2O1` (mixture of isomers) [compound 28, Bis [(3RS, 5SR)-(4-oxa-1-azabicyclo[3,2,0]heptan-7-one-3-yl)-methyl]-2-hydroxysuccinate], the CC50 with KB cells came to 0.3 µg/mL (≈ 0.781 µM).
In the case of `O=C(OC[C@H]1CN2C(=O)C[C@@H]2O1)C(O)C(O)C(=O)OC[C@H]1CN2C(=O)C[C@@H]2O1` (mixture of isomers) [compound 29, Bis [(3RS, 5SR)-(4-oxa-1-azabicyclo[3,2,0]heptan-7-one-3-yl)-methyl]-2,3-dihydroxysuccinate], the CC50 in the data set on KB cells stood at 0.3 µg/mL (≈ 0.749 µM).
In the case of `O=C(OC[C@H]1CN2C(=O)C[C@@H]2O1)c1ccc(F)cc1` (racemic) [compound 31, (3RS, 5SR)-3-(4-Fluorobenzoyloxymethyl)-4-oxa-1-azabicyclo [3,2,0]heptan-7-one], in the data set with KB cells, the CC50 is 0.4 µg/mL (≈ 1.51 µM). Moreover, the “Mortality in 12 days” value in the data set on Sarcoma 180 (12.5 mg/kg/day) and in the data set with Sarcoma 180 (25 mg/kg/day) was 0/7 in each case. In the data set with Sarcoma 180 (setting [1]), the inhibition in vivo at 12.5 mg/kg was found to be 53.2%. For the same compound, the inhibition in vivo at 25 mg/kg in the data set on Sarcoma 180 (setting [1]) was determined as 69.4%.
Consider `O=C(OC[C@H]1CN2C(=O)C[C@@H]2O1)c1cc(F)c(F)cc1F` (racemic) [compound 32, (3RS, 5SR)-3-(2,4,5-Trifluorobenzoyloxymethyl)-4-oxa-1-azabicyclo[3,2,0]heptan-7-one], for which the CC50 in the data set on KB cells amounted to 0.3 µg/mL (≈ 0.996 µM).
The same measure, in the same setting: the same measure for `Nc1ccc(C(=O)OC[C@H]2CN3C(=O)C[C@@H]3O2)cc1` (racemic) [compound 34, (3RS, 5SR)-3-(4-Aminobenzoyloxymethyl)-4-oxa-1-azabicyclo [3,2,0]heptan-7-one]: 0.4 µg/mL (≈ 1.53 µM).
As for `COc1cc(C(=O)OC[C@H]2CN3C(=O)C[C@@H]3O2)cc(OC)c1O` (racemic) [compound 35, (3RS, 5SR)-3-(4-Hydroxy-3,5-dimethoxybenzoyloxymethyl)-4-oxa-1-azabicyclo [3,2,0]heptan-7-one], the CC50 with KB cells came out at 0.8 µg/mL (≈ 2.47 µM).
`O=C1C[C@@H]2O[C@@H](CSCc3ccccc3)CN12` (racemic) [compound 41, (3RS,5SR)-3-Benzylthiomethyl-4-oxa-1-azabicyclo[3,2,0]heptan-7-one]: the CC50 in the data set with KB cells turned out to be 5 µg/mL (≈ 20.1 µM). For the same compound, the “Mortality in 12 days” value in the data set with Sarcoma 180 (6.25 mg/kg/day) was 0/6. The inhibition in vivo at 6.25 mg/kg with Sarcoma 180 (setting [1]) is 17.1%.
As to `O=C1C[C@@H]2O[C@@H](CS(=O)(=O)Cc3ccccc3)CN12` (racemic) [compound 43, (3RS, 5SR)-3-Benzylsulfonylmethyl-4-oxa-1-azabicyclo[3,2,0]heptan-7-one], in the data set on KB cells, the CC50 was 0.5 µg/mL (≈ 1.78 µM). In addition, in the data set on Sarcoma 180 (12.5 mg/kg/day), the “Mortality in 12 days” value is given as 0/6. For the same compound, the inhibition in vivo at 12.5 mg/kg in the data set with Sarcoma 180 (setting [1]) was determined as 19.5%.
`O=C1C[C@@H]2O[C@@H](CSc3ccccc3)CN12` (racemic) [compound 44, (3RS, 5SR)-3-Phenylthiomethyl-4-oxa-1-azabicyclo[3,2,0]heptan-7-one]: the CC50 in the data set on KB cells was determined as 3 µg/mL (≈ 12.7 µM).
Still for that read-out and setting: the same measure for `O=C1C[C@@H]2O[C@@H](CS(=O)(=O)c3ccccc3)CN12` (racemic) [compound 46, (3RS, 5SR)-3-Phenylsulfonylmethyl-4-oxa-1-azabicyclo[3,2,0]heptan-7-one]: 2 µg/mL (≈ 7.48 µM).
Regarding `O=C1C[C@@H]2O[C@H](CCO)CN12` (racemic) [compound 50, (3RS, 5SR)-3-Hydroxyethyl-4-oxa-1-azabicyclo[3,2,0]heptan-7-one], the CC50 in the data set on KB cells was found to be 0.7 µg/mL (≈ 4.45 µM). Also, the “Mortality in 12 days” value in the data set on Sarcoma 180 (50 mg/kg/day) was 0/6. Moreover, the inhibition in vivo at 50 mg/kg with Sarcoma 180 (setting [1]) was 65.3%.
With `Cc1ccc(S(=O)(=O)C[C@H]2CN3C(=O)C[C@@H]3O2)cc1` (racemic) [compound 51, (3RS, 5SR)-3-(4-Methylbenzenesulfonyl)methyl-4-oxa-1-azabicyclo[3,2,0]heptan-7-one], in the data set on KB cells, the CC50 stood at 1 µg/mL (≈ 3.55 µM).
As to `CC(C)CC(=O)OC[C@H]1CN2C(=O)C[C@@H]2O1` (relative stereo) [compound 10, (3RS, 5SR)-3-Methylbutyryloxymethyl-4-oxa-1-azabicyclo [3,2,0]heptan-7-one], the CC50 with KB cells was 0.25 µg/mL (≈ 1.1 µM).
Still for that read-out and setting: the same measure for `CC(C)CCC(=O)OC[C@H]1CN2C(=O)C[C@@H]2O1` (relative stereo) [compound 11]: 0.4 µg/mL (≈ 1.66 µM).
Still for that read-out and setting: the same measure for `CCCCC(C)C(=O)OC[C@H]1CN2C(=O)C[C@@H]2O1` (relative stereo) [compound 12]: 0.4 µg/mL (≈ 1.57 µM).
Still for that read-out and setting: the result for `Cc1cc(C)c(C(=O)OC[C@H]2CN3C(=O)C[C@@H]3O2)c(C)c1` (relative stereo) [compound 19] reads 2 µg/mL (≈ 6.91 µM).
Turning to `COc1ccc(C(=O)OC[C@H]2CN3C(=O)C[C@@H]3O2)cc1` (relative stereo) [compound 20], in the data set on KB cells, the CC50 came out at 0.6 µg/mL (≈ 2.16 µM). The “Mortality in 12 days” value in the data set on Sarcoma 180 (3.13 mg/kg/day), in the data set with Sarcoma 180 (6.25 mg/kg/day), in the data set on Sarcoma 180 (12.5 mg/kg/day) and with Sarcoma 180 (25 mg/kg/day) was 0/7 in each case. In addition, the inhibition in vivo at 3.13 mg/kg in the data set with Sarcoma 180 (setting [1]) was 60%. Further, the inhibition in vivo at 6.25 mg/kg in the data set on Sarcoma 180 (setting [1]) was 68.6%. In the data set with Sarcoma 180 (setting [1]), the inhibition in vivo at 12.5 mg/kg is 59.1%. Further, the inhibition in vivo at 25 mg/kg in the data set on Sarcoma 180 (setting [1]) is 74.1%.
As to `O=C(OC[C@H]1CN2C(=O)C[C@@H]2O1)c1ccc(O)cc1` (relative stereo) [compound 21], the CC50 with KB cells worked out at 2.2 µg/mL (≈ 8.36 µM). The “Mortality in 12 days” value with Sarcoma 180 (50 mg/kg/day) is 0/6. The inhibition in vivo at 50 mg/kg with Sarcoma 180 (setting [1]) amounted to 48.3%.
With `O=C(OC[C@H]1CN2C(=O)C[C@@H]2O1)c1ccc(O)c(O)c1` (relative stereo) [compound 22], the CC50 with KB cells came to 2.5 µg/mL (≈ 8.95 µM).
As for `O=C(O)COc1ccc(C(=O)OC[C@H]2CN3C(=O)C[C@@H]3O2)cc1` (relative stereo) [compound 23, Sodium (3RS, 5SR)-4-(4-oxa-1-azabicyclo [3,2,0]heptan-7-one-3-methyloxycarbonyl)phenoxyacetate], the CC50 in the data set with KB cells worked out at 8.7 µg/mL. For the same compound, the “Mortality in 12 days” value in the data set on Sarcoma 180 (50 mg/kg/day) was 0/6. Moreover, the inhibition in vivo at 50 mg/kg in the data set on Sarcoma 180 (setting [1]) was 23.7%.
For the compound `O=C(O)C1CCCCC1C(=O)OC[C@H]1CN2C(=O)C[C@@H]2O1` (relative stereo) [compound 24, Sodium (3RS, 5SR)-2-(4-oxa-1-azabicyclo [3,2,0]heptan-7-one-3-methyloxycarbonyl)cyclohexyl-2-carboxylate], in the data set with KB cells, the CC50 came to 0.7 µg/mL.
For `O=C(O)CCC(=O)OC[C@H]1CN2C(=O)C[C@@H]2O1` (relative stereo) [compound 26], the CC50 with KB cells amounted to 9.8 µg/mL (≈ 40.3 µM).
For the compound `O=C(O)/C=C/C(=O)OC[C@H]1CN2C(=O)C[C@@H]2O1` (relative stereo) [compound 27, Sodium [(3RS, 5SR)-(4-oxa-1-azabicyclo[3,2,0]heptan-7-one-3-yl)methyl]fumarate], the CC50 in the data set on KB cells is 2.4 µg/mL.
For `O=C(/C=C\C(=O)OC[C@H]1CN2C(=O)C[C@@H]2O1)OC[C@H]1CN2C(=O)C[C@@H]2O1` (relative stereo) [compound 30, Bis [(3RS, 5SR)-(4-oxa-1-azabicyclo[3,2,0]heptan-7-one-3-yl)-methyl]maleate], the CC50 with KB cells is 0.05 µg/mL (≈ 0.136 µM). Further, the “Mortality in 12 days” value with Sarcoma 180 (12.5 mg/kg/day) was 0/6. The “Mortality in 12 days” value with Sarcoma 180 (25 mg/kg/day) is reported as 0/6. Moreover, in the data set with Sarcoma 180 (setting [1]), the inhibition in vivo at 12.5 mg/kg came to 34% and the inhibition in vivo at 25 mg/kg is 76.9%.
With `N#Cc1ccc(C(=O)OC[C@H]2CN3C(=O)C[C@@H]3O2)cc1` (relative stereo) [compound 33, (3RS, 5SR)-3-(4-Cyanobenzoyloxyymethyl)-4-oxa-1-azabicyclo [3,2,0]heptan-7-one], in the data set with KB cells, the CC50 is 0.3 µg/mL (≈ 1.1 µM).
Consider `COc1ccc(COC[C@H]2CN3C(=O)C[C@@H]3O2)cc1OC` [39A], for which the CC50 in the data set with KB cells is 0.56 µg/mL (≈ 1.91 µM).
In the case of `COc1ccc(COC[C@H]2CN3C(=O)C[C@H]3O2)cc1OC` [39B, (3R,5R)-3-(3,4-Dimethoxybenzyloxymethyl)-4-oxa-1-azabicyclo[3,2,0] heptan-7-one], in the data set with KB cells, the CC50 worked out at 0.57 µg/mL (≈ 1.94 µM).
